# According to patent publication US6399654B1, “Biflavanoids and derivatives thereof as antiviral agents” (priority 1995, dated 2002):
# Where a name gives a salt, the structure may show the parent alone. Read-outs that look alike come from different tables or passages of the source.
# How the values were obtained:
# [1] = tested on: Influenza A (H1N1) Texas/36/91; assay: microbe, parasite or virus in culture; assay type: cell-based, influenza A virus; conditions: Influenza A (H1N1) Texas/36/91
# [2] = tested on: Influenza A (H1N1) Texas/36/91; assay: microbe, parasite or virus in culture; assay type: cell-based, influenza A virus; conditions: Influenza A (H1N1) Texas/36/91; remark: listed apart in the source
# [3] = tested on: Influenza A (H3N2) Beijing/32/92; assay: microbe, parasite or virus in culture; assay type: cell-based, influenza A virus; conditions: Influenza A (H3N2) Beijing/32/92
# [4] = tested on: Influenza A (H3N2) Beijing/32/92; assay: microbe, parasite or virus in culture; assay type: cell-based, influenza A virus; conditions: Influenza A (H3N2) Beijing/32/92; remark: listed apart in the source
# Influenza B Panama/45/90 [5] = assay: microbe, parasite or virus in culture; assay type: cell-based; conditions: Influenza B Panama/45/90
# Measles Virus [6] = assay: microbe, parasite or virus in culture; assay type: cell-based; conditions: Measles Virus
# Measles Virus [7] = assay: Measles virus neutral red dye uptake in BSC-1 cells; assay type: cell-based
# Adenovirus Type 5 [8] = assay: microbe, parasite or virus in culture; assay type: cell-based
# Adenovirus Type 5 [9] = assay: Adenovirus type 5 neutral red dye uptake in A549 cells; assay type: cell-based; conditions: Adenovirus Type 5
# [10] = tested on: Parainfluenza Type 3 Virus; assay: organism not typed; assay type: cell-based; conditions: Parainfluenza Type 3 Virus
# [11] = tested on: Parainfluenza Type 3 Virus; assay: organism not typed; assay type: cell-based
# [12] = tested on: Respiratory Syncytial Virus; assay: microbe, parasite or virus in culture; assay type: cell-based; conditions: Respiratory Syncytial Virus
# [13] = tested on: Respiratory Syncytial Virus; assay: microbe, parasite or virus in culture; assay type: cell-based; conditions: Respiratory Syncytial Virus; remark: listed apart in the source
# HIV-1 RT = target: T1, HIV-1 RT (Human immunodeficiency virus type 1 group M subtype B, UniProt P03366); assay: Anti-HIV-1 RT assay (recombinant enzyme); assay type: biochemical; conditions: for Anti-HIV-1 RT IC50: values in parentheses or in words
# T1 construct: made in house; host or cells: Escherichia coli
# [14] = tested on: Madin Darby canine kidney (MDCK) cells; conditions: for CPE Inhibition IC50 (50% cell inhibitory (cytotoxic) concentration): Influenza A (H1N1) test
# [15] = tested on: Madin Darby canine kidney (MDCK) cells
# [16] = tested on: African green monkey kidney (BSC-1) cells; conditions: Measles Virus test
# [17] = tested on: African green monkey kidney (BSC-1) cells
# [18] = tested on: Human lung carcinoma (A549) cells; conditions: Adenovirus Type 5 test
# [19] = tested on: Human lung carcinoma (A549) cells
# [20] = tested on: African green monkey kidney (MA-104) cells; conditions: for CPI Inhibition IC50 (cytotoxic): Parainfluenza Type 3 Virus test; for CPE Inhibition IC50 (cytotoxic): Respiratory Syncytial Virus test
# HCMV = HCMV CPE inhibition in HFF cells; conditions: HFF Cells
# HSV-1 = HSV-1 CPE inhibition in HFF cells; conditions: HFF Cells
# HSV-2 = HSV-2 CPE inhibition in HFF cells; conditions: HFF Cells
# VZV = VZV plaque reduction assay in HFF cells; conditions: for VZV Plaque Reduction EC50 / VZV SI (CC50/EC50): HFF Cells
# Hepatitis B Virus (HBV) = assay: Inhibition of HBV replication in 2.2.15 cells, extracellular (virion) HBV DNA; conditions: for anti-HBV activity (in words) / EC50 / EC90: 2.2.15 cells; for SI (CC50/EC90), HBV Virion: selective index; for EC50: read-out: EC50 (50% effective dose), HBV Virion; for EC50 / EC90: extracellular (virion) HBV DNA, 9 days treatment; for EC90: read-out: EC90 (90% effective dose), HBV Virion;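 as to all read-outs here: extracellular virion HBV DNA in culture medium measured by slot blot hybridization with a 32P-labeled HBV probe, quantified against HBV DNA standards, after 9 days of daily dosing, compared with day 0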
# Influenza B Panama/45/90 [21] = assay: microbe, parasite or virus in culture; assay type: cell-based
# HIV-1 (strain LAV-1) = assay: microbe, parasite or virus in culture; assay type: cell-based; conditions: for Selective Index (SI): PBM cells
# [22] = Cytotoxicity in uninfected PHA-stimulated human PBM cells; conditions: human
# adenovirus type 1 = assay: Activity against adenovirus type 1; assay type: cell-based; conditions: Human mastadenovirus C
smiles,measurement,setting,value
"CC(=O)Oc1ccc([C@@H]2CC(=O)c3c(cc(OC(C)=O)c(-c4c(OC(C)=O)cc(OC(C)=O)c5c4O[C@H](c4ccc(OC(C)=O)cc4)CC5=O)c3OC(C)=O)O2)cc1 [Rhusflavanone hexaacetate (10), rhusflavanone hexaacetate]",CPE Inhibition EC50,[1],>10 µg/mL
same,Neutral Red EC50,[2],5.6 µg/mL
same,CPE Inhibition EC50,[3],>10 µg/mL
same,Neutral Red EC50,[4],5.4 µg/mL
same,CPE Inhibition EC50,Influenza B Panama/45/90 [5],>10 µg/mL
same,CPI Inhibition EC50,Measles Virus [6],˜3 ug/ml
same,Neutral Red EC50,Measles Virus [7],<10 µg/mL
same,CPE Inhibition EC50,Adenovirus Type 5 [8],>10 µg/mL
same,Neutral Red EC50,Adenovirus Type 5 [9],19 µg/mL
same,CPI Inhibition EC50,[10],>10 µg/mL
same,Neutral Red EC50,[11],32 µg/mL
same,CPE Inhibition EC50,[12],>10 µg/mL
same,Neutral Red EC50,[13],19 µg/mL
same,Anti-HIV-1 RT % Inhibition at 200 μg/ml,HIV-1 RT,0.00%
same,Anti-HIV-1 RT IC50,HIV-1 RT,Inactive
same,CPE Inhibition IC50 (50% cell inhibitory (cytotoxic) concentration),[14],7.2 µg/mL
same,CPE Inhibition IC50 (cytotoxic),[14]; Influenza A (H3N2) test,5.6 µg/mL
same,CPE Inhibition IC50 (cytotoxic),[14]; Influenza B test,4.2 µg/mL
same,Neutral Red IC50 (cytotoxic),[15]; Influenza A (H1N1) test,5.7 µg/mL
same,Neutral Red IC50 (cytotoxic),[15]; Influenza A (H3N2) test,5.3 µg/mL
same,CPI Inhibition IC50 (cytotoxic),[16],<4 µg/mL
same,Neutral Red IC50 (cytotoxic),[17],<11 µg/mL
same,CPE Inhibition IC50 (cytotoxic),[18],22 µg/mL
same,Neutral Red IC50 (cytotoxic),[19],26 µg/mL
same,CPI Inhibition IC50 (cytotoxic),[20],22 µg/mL
same,CPE Inhibition IC50 (cytotoxic),[20],13 µg/mL
same,HCMV CPE Inhibition CC50,HFF Cells,13.4 µg/mL
same,HSV-1 CPE Inhibition CC50,HFF Cells,18.5 µg/mL
same,HSV-2 CPE Inhibition CC50,HFF Cells,18.5 µg/mL
same,VZV Plaque Reduction CC50,HFF Cells,46.7 µg/mL
same,HCMV CPE Inhibition EC50,HCMV,>4.0 µg/mL
same,HCMV SI (CC50/EC50),HCMV,<3.3
same,HSV-1 CPE Inhibition EC50,HSV-1,>4.0 µg/mL
same,HSV-1 SI (CC50/EC50),HSV-1,<4.6
same,HSV-2 CPE Inhibition EC50,HSV-2,>4.0 µg/mL
same,HSV-2 SI (CC50/EC50),HSV-2,<4.6
same,VZV Plaque Reduction EC50,VZV,11.3 µg/mL
same,VZV SI (CC50/EC50),VZV,4.1
same,anti-HBV activity (in words),Hepatitis B Virus (HBV),moderate anti-HBV activity
same,"SI (CC50/EC90), HBV Virion",Hepatitis B Virus (HBV),2.8
"CC(=O)Oc1ccc([C@@H]2CC(=O)c3c(cc(OC(C)=O)c(-c4c(OC(C)=O)cc5c(c4OC(C)=O)C(=O)C[C@@H](c4ccc(OC(C)=O)cc4)O5)c3OC(C)=O)O2)cc1 [Succedaneaflavanone hexaacetate (12), succedaneaflavanone hexaacetate]",CPE Inhibition EC50,[1],5.6 µg/mL
same,Neutral Red EC50,[2],7.4 µg/mL
same,CPE Inhibition EC50,[3],8.8 µg/mL
same,Neutral Red EC50,[4],5.6 µg/mL
same,CPE Inhibition EC50,Influenza B Panama/45/90 [5],5.4 µg/mL
same,Neutral Red EC50,Influenza B Panama/45/90 [21],5.9 µg/mL
same,CPI Inhibition EC50,Measles Virus [6],˜3.2 ug/ml
same,Neutral Red EC50,Measles Virus [7],<2 µg/mL
same,CPE Inhibition EC50,Adenovirus Type 5 [8],20 µg/mL
same,Neutral Red EC50,Adenovirus Type 5 [9],6 µg/mL
same,CPI Inhibition EC50,[10],>10 µg/mL
same,Neutral Red EC50,[11],>32 µg/mL
same,CPE Inhibition EC50,[12],>3 µg/mL
same,Neutral Red EC50,[13],6 µg/mL
same,Anti-HIV-1 RT % Inhibition at 200 μg/ml,HIV-1 RT,0.00%
same,Anti-HIV-1 RT IC50,HIV-1 RT,Inactive
same,CPE Inhibition IC50 (50% cell inhibitory (cytotoxic) concentration),[14],8.2 µg/mL
same,CPE Inhibition IC50 (cytotoxic),[14]; Influenza A (H3N2) test,12 µg/mL
same,CPE Inhibition IC50 (cytotoxic),[14]; Influenza B test,12 µg/mL
same,Neutral Red IC50 (cytotoxic),[15]; Influenza A (H1N1) test,7.4 µg/mL
same,Neutral Red IC50 (cytotoxic),[15]; Influenza A (H3N2) test,5.6 µg/mL
same,Neutral Red IC50 (cytotoxic),[15]; Influenza B test,5.9 µg/mL
same,CPI Inhibition IC50 (cytotoxic),[16],<4 µg/mL
same,Neutral Red IC50 (cytotoxic),[17],<200 µg/mL
same,CPE Inhibition IC50 (cytotoxic),[18],19 µg/mL
same,Neutral Red IC50 (cytotoxic),[19],6 µg/mL
same,CPI Inhibition IC50 (cytotoxic),[20],˜14 ug/ml
same,CPE Inhibition IC50 (cytotoxic),[20],4 µg/mL
same,HCMV CPE Inhibition CC50,HFF Cells,14.4 µg/mL
same,HSV-1 CPE Inhibition CC50,HFF Cells,17.7 µg/mL
same,HSV-2 CPE Inhibition CC50,HFF Cells,17.7 µg/mL
same,VZV Plaque Reduction CC50,HFF Cells,68.0 µg/mL
same,HCMV CPE Inhibition EC50,HCMV,>4.0 µg/mL
same,HCMV SI (CC50/EC50),HCMV,<3.5
same,HSV-1 CPE Inhibition EC50,HSV-1,>4 µg/mL
same,HSV-1 SI (CC50/EC50),HSV-1,<4.4
same,HSV-2 CPE Inhibition EC50,HSV-2,>4.0 µg/mL
same,HSV-2 SI (CC50/EC50),HSV-2,<4.4
same,activity against VZV (in words),VZV,moderately active
same,VZV Plaque Reduction EC50,VZV,7.1 µg/mL
same,VZV SI (CC50/EC50),VZV,9.6
same,anti-HBV activity (in words),Hepatitis B Virus (HBV),moderate anti-HBV activity
same,EC50,Hepatitis B Virus (HBV),3.5 µM
same,EC90,Hepatitis B Virus (HBV),128 µM
same,"SI (CC50/EC90), HBV Virion",Hepatitis B Virus (HBV),1.9
"Nc1ncnc2c1ncn2C[C@@H](CO)OCP(=O)(O)O [HPMPA, (S)-1-(3-hydroxy-2-phosophonylmethoxypropyl)adenine, reference compound]",CPE Inhibition EC50,Adenovirus Type 5 [8],30 µg/mL
same,Neutral Red EC50,Adenovirus Type 5 [9],8 µg/mL
same,CPE Inhibition IC50 (cytotoxic),[18],80 µg/mL
same,Neutral Red IC50 (cytotoxic),[19],40 µg/mL
"O=C1c2c(O)cc(O)cc2O[C@H](c2ccc(O)cc2)[C@H]1c1c(O)cc(O)c2c(=O)cc(-c3ccc(O)c(O)c3)oc12 [Morelloflavone(7), morelloflavone]",IC50,"HIV-1 RT; Anti-HIV-1 RT IC50, values in parentheses or in words",116 µM
same,IC50,HIV-1 RT; HIV-1 RT IC50 (50% inhibition dose),116 µM
same,inhibition at 200 µg/mL,HIV-1 RT; read-out: Anti-HIV-1 RT % Inhibition at 200 μg/ml,99.2%
same,anti-HIV-1 activity in PBM cells (in words),HIV-1 (strain LAV-1),potent inhibitory activity
same,EC50,"HIV-1 (strain LAV-1); Human immunodeficiency virus 1, PBMC, human PBM cells infected with HIV-1 (strain LAV), read-out: Ant-HIV-1 in PBM cells EC50",5.7 µM
same,EC50,"HIV-1 (strain LAV-1); Human immunodeficiency virus 1, PBMC, read-out: EC50 (50% effective dose) in PBM cells infected with HIV-1, whole cell assay",5.7 µg/mL
same,Selective Index (SI),HIV-1 (strain LAV-1),12
same,Selective Index (SI),HIV-1 (strain LAV-1); listed as Morelloflavone,approximately 10
same,EC50,"HIV-1 (strain LAV-1); human PBM cells infected with HIV-1 (strain LAV), read-out: Ant-HIV-1 in PBM cells EC50",8 µM
same,EC50 (50% effective dose) in PBM cells infected with HIV-1,HIV-1 (strain LAV-1); whole cell assay,8.0 µg/mL
same,IC50,[22],82 µM
"O=c1cc(-c2ccc(O)c(-c3c(O)cc4oc(-c5ccc(O)cc5)cc(=O)c4c3O)c2)oc2cc(O)cc(O)c12 [Robustaflavone sodium salt, Robustaflavone tetrasodium salt]",EC50,adenovirus type 1,32 µM
same,IC50,"adenovirus type 1; 50% cell inhibitory (cytotoxic) concentration, read-out: IC50 in the adenovirus type 1 test",> 160 µM
same,fold less active/potent than robustaflavone against HBV,Hepatitis B Virus (HBV); in vitro assay against HBV,approximately 10 fold
same,EC50,Hepatitis B Virus (HBV),3.1 µM
same,EC90,Hepatitis B Virus (HBV),12 µM
same,"SI (CC50/EC90), HBV Virion",Hepatitis B Virus (HBV),88
